The target in data set [1] is T1, Aβ1-42 (Homo sapiens, UniProt P05067).
T1 construct: phosphate buffer (pH 7.4)/cell culture solution (containing 0.1% horse serum) (1:3) containing Aβ1-42 (10 μM)
The data set is described as follows: In vitro oxygenation experiment using Aβ1-42 as a substrate (MALDI-TOF MS), Test Example 1. In kind it is biochemical. Particulars: test compound 1 μM, Aβ1-42 10 μM, LED irradiation at 730 nm, 37° C. The protocol: An in vitro oxygenation experiment using Aβ1-42 as a substrate was conducted to confirm that each of the inventive compounds actually have Aβ oxygenation activity. A test compound (1 μM in each case) was added to phosphate buffer (pH 7.4)/cell culture solution (containing 0.1% horse serum) (1:3) containing Aβ1-42 (10 μM), and incubated under LED irradiation (wavelength: 660 nm, 730 nm) at 37° C., and then the reaction was tracked by using a mass spectrometer (MALDI-TOF MS). The native Aβ1-42 and the Na^+ adduct were mainly observed before light irradiation. After light irradiation, an ion peak indicating the presence of the oxygenated form was observed over time (FIG. 1, FIG. 2).

In data set [2] the test system is PC 12 cells. The experiment in a line: Cytotoxicity under light irradiation, WST-8 cell viability, Test Example 2. The class given is cell-based, rat. Particulars: LED 660 nm, 10 mW, 5 minutes, then 48 hours. On the technique in general: Tetrazolium assays rely on reduction of a dye to a coloured formazan, in cell work by metabolically active cells.
Protocol: A culture medium for rat adrenal medulla-derived pheochromocytoma PC 12 cells (purchased from RIKEN, Japan) seeded on a poly-D-lysine-coated 96-well plate was replaced with 75 μL of a Dulbecco's modified Eagle's medium containing 0.1% horse serum, and the culture was incubated in a 5% CO2 atmosphere at 37° C. for 1 day, and 25 μL of a phosphate buffer saline (pH 7.4) containing a inventive compound was then added thereto. Thereafter, the mixed solution was incubated under LED irradiation (wavelength: 660 nm, 10 mW) (without light irradiation for dark) at 37° C. for 5 minutes. Further, the cell culture plate containing the reaction solution was incubated in a 5% CO2 atmosphere at 37° C. for 48 hours. Finally, the Cell Count Reagent SF (10 μL: purchased from NACALAI TESQUE, INC.) containing WST-8 was added, and the culture was incubated in a 5% CO2 atmosphere at 37° C. for 3 hours, and thereafter the cell viability was determined from the absorbance at 450 nm (reference wavelength: 655 nm).
The nature of data set [3]: Oxygenation of benzoylmethionine in glycerol/water (LC/MS), Test Example 4. The following applies: compound 2 μM, benzoylmethionine 2000 μM, glycerol/water 0:100 to 50:50, LED 730 nm, room temperature. The protocol:
The compound K (2 μM) was added to glycerol/water (0:100, 10:90, 30:70, 50:50) dissolving benzoylmethionine (2000 μM) therein, and the resultant was subjected to LED irradiation (wavelength: 730 nm) at room temperature, and thereafter the reaction was tracked by using LC/MS (ESI-Q).

Data set [4] is described as follows: Stability of catalyst in neutral phosphate buffer without or under light irradiation (HPLC), Test Example 5. In kind it is physicochemical. The following applies: under light irradiation (660 nm). As to the method:
A neutral phosphate buffer containing a catalyst was incubated without light irradiation or under light irradiation (660 nm), and thereafter ethanol containing benzyl alcohol (as an internal standard) was added thereto, and analysis was performed by using HPLC.

Data set [5] deals with T1, Aβ1-42. The experiment in a line: Degree of oxygenation of pre-aggregated Aβ1-42 (MALDI-TOF MS), Test Example 10. The class given is biochemical. The following applies: pre-aggregated Aβ1-42 20 μM, catalyst 2 μM, phosphate buffer pH 7.4, 660 nm, 37° C., 30 minutes. As to the method: Aβ1-42 isopeptide (concentration: 250 μM in 0.1% aqueous solution of trifluoroacetic acid), angiotensin IV (200 μM aqueous solution), Met-enkephalin (200 μM aqueous solution), and somatostatin (200 μM aqueous solution) were added to a phosphate buffer or phosphate buffer saline (pH 7.4) (with 0.1 M aqueous solution of sodium hydroxide, as necessary) so that a final peptide concentration of 20 μM or 40 μM (pH 7.4) was reached. Before being subjected to oxygenation reaction, the Aβ1-42 solution was incubated at 37° C. for 1 to 3 hours. The phosphate buffer containing 40 μM of Aβ was diluted with a Dulbecco's modified Eagle's medium (DMEM, Life Technologies) containing 0.1% horse serum and buffered with 25 mM of 4-(2-hydroxyethyl)-1-piperazineethanesulfonic acid (HEPES).
Solutions of the compounds with a final concentration of 2 μM were used for evaluation of oxygenation of Aβ1-42. Solutions of the compounds with a final concentration of 5 μM were used for evaluation of peptide selectivity. Each mixture was subjected to light irradiation with an LED (wavelength: 500, 660, or 780 nm) at a distance of approximately 5 to 10 cm at room temperature. A control group without light irradiation was additionally prepared. Reaction was analyzed through monitor analysis with a MALDI-TOF MS. Degree of oxygenation was determined as a ratio: degree of oxygenation (%)=(total of MS intensities for n[O] adducts)/(MS intensity for native+total of MS intensities for n[O] adducts)×100. Aliquots of each reaction solution were desalted with a ZipTip U-C18 (Merck Millipore), as necessary, before mass spectrometry.
a: A phosphate buffer (pH 7.4) solution containing pre-aggregated Aβ1-42 (20 μM, incubated at 37° C. for 3 hours) and a catalyst (2 μM) was subjected to light irradiation (wavelength: 660 nm) at 37° C. for 30 minutes. Thereafter, the reaction mixture was analyzed by using a MALDI-TOF MS.
a: A phosphate buffer (pH 7.4) containing pre-aggregated Aβ1-42 (20 μM, obtained through incubation at 37° C. for 3 hours) and a catalyst (2 μM) were subjected to light irradiation at 780 nm (14 mW) at 37° C. for 30 minutes. The reaction mixture was analyzed by using a MALDI-TOF MS.

The subject of data set [6] is PC 12 cells. The class given is cell-based. Particulars: 5 minutes then 48 hours, n=5, mean±SEM, Table 1. As to the method: Rat pheochromocytoma PC 12 cells were suspended with DMEM containing 5% horse serum and 10% fetal bovine serum, seeded in a poly-D-lysine-coated 96-well plate at a concentration of 10,000 cells per well, and incubated in a 5% carbon dioxide atmosphere at 37° C. for 3 days. After the solvent was removed, the cells were washed with 150 μL of serum-free DMEM, and DMEM (75 μL) containing 0.1% horse serum was added thereto. Thereafter, the 96-well plate was incubated in a 5% carbon dioxide atmosphere at 37° C. for 1 day for use in oxygenation reaction. In oxygenation reaction, the compound E (100 μM dimethyl sulfoxide solution) was added to a phosphate buffer saline containing Aβ (aggregated in advance for 3 hours, 40 μM) and 25 μL of the above cell solution (final concentration of Aβ: 10 μM, final concentration of compound E: 1 μM). The mixture was irradiated with an LED (wavelength: 780 nm) at a distance of approximately 5 cm at 37° C. for 5 minutes. The cells were incubated in a 5% carbon dioxide atmosphere at 37° C. for 48 hours. The cell viability was measured by using the Cell Count Reagent SF (NACALAI TESQUE, INC., Kyoto, Japan) with WST-8 (2-(2-methoxy-4-nitrophenyl)-3-(4-nitrophenyl)-5-(2,4-disulfophenyl)-2H-tetrazolium).
b: LC50 (dark) indicates the toxicity of a compound itself, and LC50 (light) indicates the phototoxicity of a compound. The PC 12 cells were placed in dark or subjected to photocatalytic treatment under light irradiation (wavelength: 660 nm), and incubated at 37° C. for 5 minutes, and then in a 5% carbon dioxide atmosphere at 37° C. for 48 hours, for which the cell viability was analyzed (n=5, mean±SEM).
b: The PC 12 cells were treated together with a photocatalyst (1 μM) at 37° C. for 5 minutes in dark or under light irradiation (wavelength: 780 nm), and thereafter the cell viability was analyzed (n=3, mean±SEM).

A short description of data set [7]: Maximum wavelength λmax of photocatalysts. The class given is physicochemical. Particulars: Table 1.

“Also recorded” adds a separate entry of the source. Read-outs that look alike come from different tables or passages of the source.

T1 sequence (P05067 672-713): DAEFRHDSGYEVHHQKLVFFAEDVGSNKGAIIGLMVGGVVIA

For the molecule `CN(C)c1ccc(/C=C/C2=C(Br)C(/C=C/c3ccc4c(c3)CCCN4CCCCCC(=O)O)=[O+][B-](F)(C(F)(F)F)O2)cc1` (centres unmarked) [Compound K], the “oxygenation of Aβ1-42 under light irradiation” value on Aβ1-42 [1] is listed as “oxygenation of the Aβ proceeded”. For the same molecule, the “toxicity under light irradiation (ranking)” value in the data set on PC 12 cells [2] is “higher in the order of the compound J, the compound K, and the compound L; also recorded: iodine provides more reduced toxicity than in the case of bromine”. Also, the “benzoylmethionine/oxygenated form ratio (%)” value in data set [3] is recorded as “higher as the concentration of glycerol, which has high viscosity, was higher”. Besides, the “stability of catalyst (ranking)” value in data set [4] is “higher in the order of BFCF3 (compound K)<BFCF2CF3 (compound J)”. Besides, on Aβ1-42 [5], the “Degree of oxygenation (%) of Aβ42 (λ = 660 nm)” value is 86%. In addition, the CC50 in the data set with PC 12 cells [6] (PC 12 cells in dark, read-out: LC50 (dark)) stood at 1.89 µM; in the data set with PC 12 cells [6] (PC 12 cells, light irradiation 660 nm, read-out: LC50 (light)) it was 0.143 µM. Also, in data set [7], the “Maximum wavelength λmax (nm)” value worked out at 620 nm.

These data come from US10669287B2, “Curcumin-boron complex and pharmaceutical containing same” (JAPAN SCIENCE AND TECHNOLOGY AGENCY, priority 2016, dated 2020).
